Reference: patent US20030055010A1, “Preserving active fungicide in an aqueous solution” (priority 1999, published 2003)

Assay: Rest activity of natamycin over time in water based polymer dispersion mixtures (HPLC)
Type: physicochemical
Source text: This example describes a method to prepare a formulation suitable for use as a food coating and which was developed to test the stability of natamycin over time in relation to the added base polymers.
The mixtures were made with an electric top stirrer, type RW 20 DZM, from Janke & Kunkel equipped with a rushton stirrer.
The mixtures were made by adding 500 gram Mowilith DM2KL, 1000 gram of the latex polymer, to be tested together with 4 gram Delvocid® and a protective additive.
The total weight was made up to 2000 gram with tap water.
This crude mixture was mixed for 5 minutes to obtain a homogeneous mixture and was then adjusted to pH 4-7 with ammonia.
The mixture was stored at 18° C. in a closed pot in the dark.
The prepared mixtures were measured over time for the amount of active natamycin using the test described in Example 2.
This Example describes the method that was used to analyze the amount of active natamycin in a water based mixture of several components.
The method was a HPLC analysis based on the International Dairy Federation (Provisional ADF Standard 140, 1987) with a Lichrosorb RP 8 column. Detection was by UV at 303 nm with a range of 0.1-4 mg/L with an injection volume of 20 μl.
Sample preparation was carried out by weighing 2 g prepared formulation with an accuracy of 1 mg in a measuring flask. 4 ml demineralized water (demiwater) was added and the mixture was stirred for […] a homogeneous suspension.
Subsequently 80 ml methanol was added and the mixture was stirred for 10 minutes. After ultrasonic treatment the solution was filled up to 100 ml with demiwater and the diluted and/or filtered (0.2 μm) before injecting.
The amount of active natamycin as ppm was calculated against a series of standards.
To test the stability of natamycin in combination with water based polymer dispersions mixtures, mixtures were made according to Example 1, and the rest activity of natamycin measured according to Example 2. The results are set out in table 1 (rest activity in %).

C[C@@H]1C/C=C/C=C/C=C/C=C/[C@H](O[C@@H]2O[C@H](C)[C@@H](O)[C@H](N)[C@@H]2O)C[C@@H]2O[C@](O)(C[C@@H](O)C[C@H]3O[C@@H]3/C=C/C(=O)O1)C[C@H](O)[C@H]2C(=O)O [natamycin]
Rest activity of natamycin over time (Basepolymer 2, EDTA-disodiumsalt 0 ppm, 0 weeks): 100% | Rest activity of natamycin over time (Basepolymer 2, EDTA-disodiumsalt 0 ppm, 1 week): 70% | Rest activity of natamycin over time (Basepolymer 2, EDTA-disodiumsalt 0 ppm, 3 weeks): 22% | Rest activity of natamycin over time (Basepolymer 2, EDTA-disodiumsalt 0 ppm, 5 weeks): 5% | Rest activity of natamycin over time (Basepolymer 2, EDTA-disodiumsalt 0 ppm, 7 weeks): 2% | Rest activity of natamycin over time (Basepolymer 2, EDTA-disodiumsalt 100 ppm, 0 weeks): 100% | Rest activity of natamycin over time (Basepolymer 2, EDTA-disodiumsalt 100 ppm, 1 week): 99% | Rest activity of natamycin over time (Basepolymer 2, EDTA-disodiumsalt 100 ppm, 3 weeks): 98% | Rest activity of natamycin over time (Basepolymer 2, EDTA-disodiumsalt 100 ppm, 5 weeks): 88% | Rest activity of natamycin over time (Basepolymer 2, EDTA-disodiumsalt 100 ppm, 7 weeks): 82% | Rest activity of natamycin over time (Basepolymer 2, EDTA-disodiumsalt 250 ppm, 0 weeks): 100% | Rest activity of natamycin over time (Basepolymer 2, EDTA-disodiumsalt 250 ppm, 1 week): 97% | Rest activity of natamycin over time (Basepolymer 2, EDTA-disodiumsalt 250 ppm, 3 weeks): 95% | Rest activity of natamycin over time (Basepolymer 2, EDTA-disodiumsalt 250 ppm, 5 weeks): 88% | Rest activity of natamycin over time (Basepolymer 2, EDTA-disodiumsalt 250 ppm, 7 weeks): 85% | Rest activity of natamycin over time (Basepolymer 2, EDTA-disodiumsalt 500 ppm, 0 weeks): 100% | Rest activity of natamycin over time (Basepolymer 2, EDTA-disodiumsalt 500 ppm, 1 week): 95% | Rest activity of natamycin over time (Basepolymer 2, EDTA-disodiumsalt 500 ppm, 3 weeks): 92% | Rest activity of natamycin over time (Basepolymer 2, EDTA-disodiumsalt 500 ppm, 5 weeks): 86% | Rest activity of natamycin over time (Basepolymer 2, EDTA-disodiumsalt 500 ppm, 7 weeks): 80% | Rest activity of natamycin over time (Basepolymer 2, EDTA-disodiumsalt 750 ppm, 0 weeks): 100% | Rest activity of natamycin over time (Basepolymer 2, EDTA-disodiumsalt 750 ppm, 1 week): 96% | Rest activity of natamycin over time (Basepolymer 2, EDTA-disodiumsalt 750 ppm, 3 weeks): 95% | Rest activity of natamycin over time (Basepolymer 2, EDTA-disodiumsalt 750 ppm, 5 weeks): 88% | Rest activity of natamycin over time (Basepolymer 2, EDTA-disodiumsalt 750 ppm, 7 weeks): 82% | Rest activity of natamycin over time (Basepolymer 2, EDTA-disodiumsalt 1000 ppm, 0 weeks): 100% | Rest activity of natamycin over time (Basepolymer 2, EDTA-disodiumsalt 1000 ppm, 1 week): 96% | Rest activity of natamycin over time (Basepolymer 2, EDTA-disodiumsalt 1000 ppm, 3 weeks): 95% | Rest activity of natamycin over time (Basepolymer 2, EDTA-disodiumsalt 1000 ppm, 5 weeks): 88% | Rest activity of natamycin over time (Basepolymer 2, EDTA-disodiumsalt 1000 ppm, 7 weeks): 81% | Rest activity of natamycin over time (Basepolymer 2, EDTA-disodiumsalt 2000 ppm, 0 weeks): 100% | Rest activity of natamycin over time (Basepolymer 2, EDTA-disodiumsalt 2000 ppm, 1 week): 97% | Rest activity of natamycin over time (Basepolymer 2, EDTA-disodiumsalt 2000 ppm, 3 weeks): 94% | Rest activity of natamycin over time (Basepolymer 2, EDTA-disodiumsalt 2000 ppm, 5 weeks): 88% | Rest activity of natamycin over time (Basepolymer 2, EDTA-disodiumsalt 2000 ppm, 7 weeks): 79% | Rest activity of natamycin over time (Basepolymer 2, EDTA-disodiumsalt 5000 ppm, 0 weeks): 100% | Rest activity of natamycin over time (Basepolymer 2, EDTA-disodiumsalt 5000 ppm, 1 week): 97% | Rest activity of natamycin over time (Basepolymer 2, EDTA-disodiumsalt 5000 ppm, 3 weeks): 95% | Rest activity of natamycin over time (Basepolymer 2, EDTA-disodiumsalt 5000 ppm, 5 weeks): 88% | Rest activity of natamycin over time (Basepolymer 2, EDTA-disodiumsalt 5000 ppm, 7 weeks): 81% | Rest activity of natamycin over time (basepolymer 3, With BHA 1000 ppm, 1 week): 96% | Rest activity of natamycin over time (basepolymer 3, With BHA 1000 ppm, 2 weeks): 92% | Rest activity of natamycin over time (basepolymer 3, With BHA 1000 ppm, 4 weeks): 84% | Rest activity of natamycin over time (basepolymer 3, With tocopherol 1000 ppm, 1 week): 92% | Rest activity of natamycin over time (basepolymer 3, With tocopherol 1000 ppm, 2 weeks): 83% | Rest activity of natamycin over time (basepolymer 3, With tocopherol 1000 ppm, 4 weeks): 76% | Rest activity of natamycin over time (basepolymer 3, Without additive, 1 week): 88% | Rest activity of natamycin over time (basepolymer 3, Without additive, 2 weeks): 70% | Rest activity of natamycin over time (basepolymer 3, Without additive, 4 weeks): 50%
